Test results published in ChEMBL document CHEMBL1141388, “2-Cyano-pyrimidines: a new chemotype for inhibitors of the cysteine protease cathepsin K” (J Med Chem, 2007).

Legend:
Cathepsin S = Cathepsin S (Homo sapiens, UniProt P25774); test: Inhibition of human recombinant cathepsin S
Cathepsin K = molecular target: T1, Cathepsin K (Homo sapiens, UniProt P43235); test: Inhibition of human recombinant cathepsin K
T1 sequence (P43235 whole entry): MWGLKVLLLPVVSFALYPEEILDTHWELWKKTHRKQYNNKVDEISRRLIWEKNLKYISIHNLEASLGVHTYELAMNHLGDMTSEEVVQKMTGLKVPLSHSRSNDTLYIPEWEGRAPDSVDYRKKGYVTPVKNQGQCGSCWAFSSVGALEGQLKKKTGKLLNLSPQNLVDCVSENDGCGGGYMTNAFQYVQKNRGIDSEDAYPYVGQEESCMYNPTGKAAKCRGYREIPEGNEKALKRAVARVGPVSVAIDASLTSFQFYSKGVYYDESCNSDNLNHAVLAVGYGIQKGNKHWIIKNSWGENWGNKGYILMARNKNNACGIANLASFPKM

Procathepsin L = Procathepsin L (Homo sapiens, UniProt P07711); test: Inhibition of human recombinant cathepsin L
[1] = Half life in rat at 4 uM/kg, iv and 10 uM/kg, po; assay type: ADME, organism-based; details: in vivo
[2] = Clearance in rat at 4 uM/kg, iv and 10 uM/kg, po; assay type: ADME, organism-based; details: in vivo

Chain of Procathepsin L (P07711 whole entry): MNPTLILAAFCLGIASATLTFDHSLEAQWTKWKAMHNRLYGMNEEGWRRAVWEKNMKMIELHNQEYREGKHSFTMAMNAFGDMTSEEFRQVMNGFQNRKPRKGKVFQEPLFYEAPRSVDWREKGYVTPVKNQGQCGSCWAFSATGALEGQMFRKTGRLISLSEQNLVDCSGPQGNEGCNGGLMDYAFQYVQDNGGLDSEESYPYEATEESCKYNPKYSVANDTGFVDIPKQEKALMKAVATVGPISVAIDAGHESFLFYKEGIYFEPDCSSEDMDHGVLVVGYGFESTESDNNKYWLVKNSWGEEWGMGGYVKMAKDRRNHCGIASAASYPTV
Chain of Cathepsin S (P25774 whole entry): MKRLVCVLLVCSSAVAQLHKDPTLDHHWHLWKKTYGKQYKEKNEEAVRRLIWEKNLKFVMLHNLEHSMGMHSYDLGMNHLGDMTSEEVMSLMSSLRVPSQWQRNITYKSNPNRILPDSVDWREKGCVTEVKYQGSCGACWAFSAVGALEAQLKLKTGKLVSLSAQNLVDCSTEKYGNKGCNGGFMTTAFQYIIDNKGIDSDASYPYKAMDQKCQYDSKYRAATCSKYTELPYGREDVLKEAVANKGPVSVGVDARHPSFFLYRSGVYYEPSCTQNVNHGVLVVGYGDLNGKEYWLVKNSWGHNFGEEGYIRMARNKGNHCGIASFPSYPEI

Row | SMILES | IC50 (Cathepsin S) | IC50 (Cathepsin K) | IC50 (Procathepsin L) | half-life [1] | clearance [2]
1 | COc1ccc(CCNC(=O)c2cnc(C#N)nc2NCC(C)(C)C)cc1OCCn1ccnc1 | 2600 nM | 31 nM | 580 nM |  | 
2 | COc1ccc(CCNC(=O)c2cnc(C#N)nc2NCC(C)(C)C)cc1 | 1600 nM | < 3 nM | 340 nM |  | 
3 | N#Cc1cccc(NC2CCCCC2)n1 |  | 1000 nM |  |  | 
4 | CC(C)(C)CNc1nc(C#N)ncc1C(=O)NCCc1cccc(OCCn2ccnc2)c1 | 510 nM | 3 nM | 680 nM |  | 
5 | CC(C)(C)CNc1nc(C#N)ncc1C(=O)NCCc1ccc(OCCn2ccnc2)cc1 | 900 nM | 3 nM | 520 nM | 48 min | 462 mL/min/kg
6 | N#Cc1nccc(NC2CCCCC2)n1 |  | 170 nM |  |  | 
7 | N#Cc1cccc(NC2CCCCC2)c1 |  | > 1000 nM |  |  | 
8 | CN1CCN(c2ccc(CCNC(=O)c3cnc(C#N)nc3NCC(C)(C)C)cc2)CC1 | 3100 nM | 25 nM | 3900 nM |  | 
9 | N#Cc1ncc(C(=O)NCCc2ccccc2)c(NC2CCCCC2)n1 | 130 nM | 10 nM | 1100 nM |  | 
10 | N#Cc1ccnc(NC2CCCCC2)n1 |  | 120 nM |  |  | 
11 | CN1CCN(c2ccc(CCNC(=O)c3cnc(C#N)nc3NC3CCCCC3)cc2)CC1 | 480 nM | 47 nM | 450 nM |  | 
12 | COc1ccc(CCNC(=O)c2cnc(C#N)nc2NC2CCCCC2)cc1 | 700 nM | 22 nM | 170 nM |  | 
13 | N#Cc1ncc(C(=O)NCCc2ccc(N3CCCC3)cc2)c(NC2CCCCC2)n1 | 2300 nM | 750 nM | 5100 nM |  | 
14 | CN1CCN(Cc2ccc(CCNC(=O)c3cnc(C#N)nc3NCC(C)(C)C)cc2)CC1 | 2500 nM | 11 nM | 330 nM |  | 
15 | N#Cc1cncc(NC2CCCCC2)n1 |  | > 1000 nM |  |  | 
16 | CN1CCC(Oc2ccc(CCNC(=O)c3cnc(C#N)nc3NCC(C)(C)C)cc2)CC1 | 10000 nM | 13 nM | 1700 nM |  | 
17 | COc1cccc(CCNC(=O)c2cnc(C#N)nc2NC2CCCCC2)c1 | 230 nM | 9 nM | 310 nM |  | 
18 | CN1CCN(c2cccc(CCNC(=O)c3cnc(C#N)nc3NCC(C)(C)C)c2)CC1 | 1800 nM | 11 nM | 820 nM |  | 
19 | COc1cccc(CCNC(=O)c2cnc(C#N)nc2NCC(C)(C)C)c1 | 900 nM | < 3 nM | 1200 nM |  | 
20 | CC(C)(C)CNc1nc(C#N)ncc1C(=O)NCCc1ccc(N2CCCC2)cc1 | > 10000 nM | 300 nM | > 10000 nM |  | 
